Assay results as given in patent US7465720B2, “Proteasome inhibiting β-lactam compounds” (President and Fellows of Harvard College, priority 2005, dated 2008).
Where two headings read alike, the source gives them in different places. Where a SMILES comes first, the peptide text is derived from it. The star is where a group is joined. Cbz = O=C(OCc1ccccc1)*

What was measured:
[1] = Stability of Compound 3 in solution at pH 7; type: physicochemical
Excerpt: Oxidative cleavage of the (S)(−)-(4-methoxyphenyl)-ethylamide protecting group in Compound 14 cleanly afforded the β-lactam, Compound 3, in 89% yield.

[2] = target: T1, 20S proteasome (Homo sapiens, UniProt P28074); experiment: Inactivation of 20S proteasome, hydrolysis of Suc-Leu-Leu-Val-Tyr-AMC followed by fluorescence; type: biochemical; settings: for kinact/KI: read-out: kobs/[3]
T1 construct: purchased Boston Biochem
Description: Determination of the inhibitory activity of Compound 3 against the 20S proteasome (see reference 12) was carried out by a modification of the method reported by Dick et al. See reference 11. […] See reference 12. The progress of proteasome inactivation was determined by addition of Suc-LLVY-AMC to a 2 mL aliquot of the incubation experiment and monitoring the rate of production of free AMC by fluorescence spectrophotometry.
A plot of .ln(fluorescence/time) vs. time provided a linear decay whose slope is kobs for proteasome inactivation (FIG. 2). The rate of proteasome inactivation was proportional to the amount of Compound 3 present in the incubation experiments. The 10 μM and 30 μM time course experiments gave values for kobs/[3] as 7 M-1s-1 and 6.7 M-1s-1 respectively. In order to monitor background inactivation of 20S proteasome (see reference 13), each of these of experiments was run side by side with a control experiment identical in all respects except for the exclusion of Compound 3.
Inactivation of 20S proteasome by Compound 3. To separate 50 mL vials containing 12 mL of pH 7.9 buffer (20 mM hepes, 0.5 mM EDTA) was added 60 μL of a stock solution of 20S proteasome (20 mM Hepes, 0.5 mM EDTA, pH 7.9, 100 μg/mL) and aqueous sodium dodecylsulfate (10% w/v, 30 μL). The initial rate of hydrolysis of Suc-Leu-Leu-Val-TyrAMC was determined by addition of a solution of Suc-Leu-Leu-Val-Tyr-AMC (10 mM in DMSO, 10 μL) to a 2 mL aliquot of each of the above solutions. The initial rate of free AMC production was monitored at 37° C. by fluorescence spectrophotometry as described by Dick et al.* To one of the stock solutions was added a solution of the β-lactam 3 (10 mM in DMSO, 12 μL). Both solutions were incubated side by side at 37° C. Aliquots were removed at time points as assayed as above. The data for both the 10 μM experiment and an identical experiment utilizing 30 μM using a 30 mM stock solution of 3 are tabulated below. * See, McCormack, T.; Baumeister, W.; Grenier, L.; Moomaw, C.; Plamondon, L.; Pramanik, B.; Slaughter, C.; Soucy, F.; Stein, R.; Zuhl, F.; Dick, L., J. Biol. Chem. 1996, 272, 26103-26109.

[3] = test system: PC12 cells; settings: cited from earlier work
[4] = Part 2, 30 μM of Compound 3, time 0 mm
[5] = Part 2, 30 μM of Compound 3, time 47 mm
[6] = Part 2, 30 μM of Compound 3, time 101 mm
[7] = Part 2, 30 μM of Compound 3, time 177 mm

## CC(C)[C@H](O)[C@@]12NC(=O)[C@H](CCCl)[C@@H]1NC2=O [Compound 3]
other
  melting point: 205 to 207 °C
[1]; found to date
  stability compared with the corresponding β-lactone and Compounds 1 and 2: much more stable
[1]; pH 7, 23° C., 24 h
  stability at pH 7: completely stable
[2]; 10 μM 3, after 9.5 h, read-out: initial proteasome activity remaining
  remaining activity at 10 µM: < 10%
[2]; 10 μM Compound 3, time 0 h
  % Initial Velocity: 100%
  Experiment with 10 μM 3 (units F/s): 0.59 units F/s
[2]; 10 μM Compound 3, time 1.5 h
  % Initial Velocity: 57%
  Experiment with 10 μM 3 (units F/s): 0.337 units F/s
[2]; 10 μM Compound 3, time 2.5 h
  % Initial Velocity: 45%
  Experiment with 10 μM 3 (units F/s): 0.267 units F/s
[2]; 10 μM Compound 3, time 4.5 h
  % Initial Velocity: 26%
  Experiment with 10 μM 3 (units F/s): 0.156 units F/s
[2]; 10 μM Compound 3, time 6.5 h
  % Initial Velocity: 15%
  Experiment with 10 μM 3 (units F/s): 0.09 units F/s
[2]; 10 μM Compound 3, time 9.5 h
  % Initial Velocity: 7.4%
  Experiment with 10 μM 3 (units F/s): 0.044 units F/s
[2]; 30 μM 3, after 3 h, read-out: initial proteasome activity remaining
  remaining activity at 30 µM: < 10%
[2]; [4]
  % Initial Velocity: 100%
  Experiment with 10 μM 3 (units F/s): 0.526 units F/s
[2]; [5]
  % Initial Velocity: 44%
  Experiment with 10 μM 3 (units F/s): .233 units F/s
[2]; [6]
  % Initial Velocity: 17%
  Experiment with 10 μM 3 (units F/s): 0.090 units F/s
[2]; [7]
  % Initial Velocity: 7%
  Experiment with 10 μM 3 (units F/s): 0.039 units F/s
[2]; pH 7.9, 10 μM time course
  kinact/KI: 7 M⁻¹ s⁻¹
[2]; pH 7.9, 30 μM time course
  kinact/KI: 6.7 M⁻¹ s⁻¹

## CC(C)C[C@@H](C=O)NC(=O)[C@H](CC(C)C)NC(=O)[C@H](CC(C)C)NC(=O)OCc1ccccc1 [benzyloxycarbonyl (Z)-Leu-Leu-leucinal] (Cbz-Leu-Leu-Leu-aldehyde)
[3]
  optimal concentration for inducing neurite outgrowth: 30 nM
